In ChEMBL document CHEMBL4049399, “Novel pyrrolopyrimidines as Mps1/TTK kinase inhibitors for breast cancer” (Bioorg Med Chem, 2017):
Converted amounts (≈) assume the structure as drawn. The source made the active and inactive calls. The calls are words filed in the database; no cut-off is given here.

Key:
T47D = experiment: Antiproliferative activity against human T47D cells assessed as reduction in cell viability after 5 to 7 days by CellTiter 96 aqueous solution assay; type: functional, cell-based
MDA-MB-436 = experiment: Antiproliferative activity against human MDA-MB-436 cells assessed as reduction in cell viability after 5 to 7 days by CellTiter 96 aqueous solution assay; type: functional, cell-based
MCF7 = experiment: Antiproliferative activity against human MCF7 cells assessed as reduction in cell viability after 5 to 7 days by CellTiter 96 aqueous solution assay; type: functional, cell-based
Hs-578T = experiment: Antiproliferative activity against human Hs578T cells assessed as reduction in cell viability after 5 to 7 days by CellTiter 96 aqueous solution assay; type: functional, cell-based
SK-BR-3 = experiment: Antiproliferative activity against human SK-BR-3 cells assessed as reduction in cell viability after 5 to 7 days by CellTiter 96 aqueous solution assay; type: functional, cell-based
CAL-51 [1] = experiment: Antiproliferative activity against human CAL51 cells assessed as reduction in cell viability after 5 to 7 days by CellTiter 96 aqueous solution assay; type: functional, cell-based
MDA-MB-231 = experiment: Antiproliferative activity against human MDA-MB-231 cells assessed as reduction in cell viability after 5 to 7 days by CellTiter 96 aqueous solution assay; type: functional, cell-based
MDA-MB-468 = experiment: Antiproliferative activity against human MDA-MB-468 cells assessed as reduction in cell viability after 5 to 7 days by CellTiter 96 aqueous solution assay; type: functional, cell-based
BT-549 = experiment: Antiproliferative activity against human BT549 cells assessed as reduction in cell viability after 5 to 7 days by CellTiter 96 aqueous solution assay; type: functional, cell-based
BT-474 = experiment: Antiproliferative activity against human BT474 cells assessed as reduction in cell viability after 5 to 7 days by CellTiter 96 aqueous solution assay; type: functional, cell-based
BT-20 = experiment: Antiproliferative activity against human BT20 cells assessed as reduction in cell viability after 5 to 7 days by CellTiter 96 aqueous solution assay; type: functional, cell-based
CAMA-1 = experiment: Antiproliferative activity against human CAMA1 cells assessed as reduction in cell viability after 5 to 7 days by CellTiter 96 aqueous solution assay; type: functional, cell-based
AU565 = experiment: Antiproliferative activity against human AU565 cells assessed as reduction in cell viability after 5 to 7 days by CellTiter 96 aqueous solution assay; type: functional, cell-based
MDA-MB-453 = experiment: Antiproliferative activity against human MDA-MB-453 cells assessed as reduction in cell viability after 5 to 7 days by CellTiter 96 aqueous solution assay; type: functional, cell-based
HCC1937 = experiment: Antiproliferative activity against human HCC1937 cells assessed as reduction in cell viability after 5 to 7 days by CellTiter 96 aqueous solution assay; type: functional, cell-based
[2] = molecular target: T1, Dual specificity protein kinase TTK (Homo sapiens) (UniProt P33981); experiment: Inhibition of Mps1/TTK in human MDA-MB-468 cells assessed as cell cycle arrest at mitotic stage by measuring decrease in spindle assembly checkpoint arrest in response to nocodazole by DAPI/Hoechst staining based assay
T1 sequence (whole entry): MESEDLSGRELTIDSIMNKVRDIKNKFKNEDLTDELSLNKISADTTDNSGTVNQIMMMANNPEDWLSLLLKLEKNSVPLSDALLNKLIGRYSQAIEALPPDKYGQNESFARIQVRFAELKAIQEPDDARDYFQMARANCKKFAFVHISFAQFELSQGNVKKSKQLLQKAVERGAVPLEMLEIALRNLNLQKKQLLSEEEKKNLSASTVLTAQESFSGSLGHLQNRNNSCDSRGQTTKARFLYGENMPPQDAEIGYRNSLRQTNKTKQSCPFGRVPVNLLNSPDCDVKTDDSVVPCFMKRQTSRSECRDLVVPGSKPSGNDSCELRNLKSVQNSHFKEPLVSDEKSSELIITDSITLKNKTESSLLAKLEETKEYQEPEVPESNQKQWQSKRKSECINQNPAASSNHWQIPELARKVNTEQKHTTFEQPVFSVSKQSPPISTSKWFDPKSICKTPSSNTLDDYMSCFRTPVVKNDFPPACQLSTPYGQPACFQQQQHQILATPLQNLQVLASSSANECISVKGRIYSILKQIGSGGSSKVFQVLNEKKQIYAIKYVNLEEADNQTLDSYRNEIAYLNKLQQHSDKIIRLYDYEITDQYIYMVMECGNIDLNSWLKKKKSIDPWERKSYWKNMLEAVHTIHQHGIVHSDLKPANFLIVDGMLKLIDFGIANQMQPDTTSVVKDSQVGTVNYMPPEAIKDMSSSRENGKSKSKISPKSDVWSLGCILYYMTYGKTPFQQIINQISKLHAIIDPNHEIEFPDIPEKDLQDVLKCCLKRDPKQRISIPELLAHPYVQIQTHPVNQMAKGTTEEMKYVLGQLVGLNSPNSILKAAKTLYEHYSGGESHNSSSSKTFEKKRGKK

[3] = molecular target: T1, Dual specificity protein kinase TTK (Homo sapiens); experiment: Inhibition of Mps1/TTK in human CAL51 cells assessed as reduction in centriole assembly during S-phase by measuring increase in BrdU positive cells with two centrioles incubated for 24 hrs followed by BrdU incorporation during last 4 hrs of incubation; type: cell-based
[4] = molecular target: T1, Dual specificity protein kinase TTK (Homo sapiens); experiment: Inhibition of Mps1/TTK in human CAL51 cells assessed as reduction in centrosome amplification during S-phase by measuring decrease in cells with more than four centrioles incubated for 24 hrs followed by BrdU incorporation during last 4 hrs of incubation; type: cell-based
[5] = molecular target: T1, Dual specificity protein kinase TTK (Homo sapiens); experiment: Inhibition of Mps1/TTK in human CAL51 cells assessed as spindle assembly checkpoint arrest in response to nocodazole by measuring decrease in cyclin B level up to 10 uM by immunoblotting method; type: cell-based
[6] = Systemic clearance in ICR mouse at 20 mg/kg, iv by LC-MS/MS analysis; type: ADME, organism-based; conditions: in vivo
[7] = molecular target: Phosphatidylinositol 4,5-bisphosphate 3-kinase catalytic subunit beta isoform (Homo sapiens, UniProt P42338); experiment: Inhibition of PI3Kbeta (unknown origin)
Phosphatidylinositol 4,5-bisphosphate 3-kinase catalytic subunit beta isoform, sequence (P42338 whole entry, canonical isoform): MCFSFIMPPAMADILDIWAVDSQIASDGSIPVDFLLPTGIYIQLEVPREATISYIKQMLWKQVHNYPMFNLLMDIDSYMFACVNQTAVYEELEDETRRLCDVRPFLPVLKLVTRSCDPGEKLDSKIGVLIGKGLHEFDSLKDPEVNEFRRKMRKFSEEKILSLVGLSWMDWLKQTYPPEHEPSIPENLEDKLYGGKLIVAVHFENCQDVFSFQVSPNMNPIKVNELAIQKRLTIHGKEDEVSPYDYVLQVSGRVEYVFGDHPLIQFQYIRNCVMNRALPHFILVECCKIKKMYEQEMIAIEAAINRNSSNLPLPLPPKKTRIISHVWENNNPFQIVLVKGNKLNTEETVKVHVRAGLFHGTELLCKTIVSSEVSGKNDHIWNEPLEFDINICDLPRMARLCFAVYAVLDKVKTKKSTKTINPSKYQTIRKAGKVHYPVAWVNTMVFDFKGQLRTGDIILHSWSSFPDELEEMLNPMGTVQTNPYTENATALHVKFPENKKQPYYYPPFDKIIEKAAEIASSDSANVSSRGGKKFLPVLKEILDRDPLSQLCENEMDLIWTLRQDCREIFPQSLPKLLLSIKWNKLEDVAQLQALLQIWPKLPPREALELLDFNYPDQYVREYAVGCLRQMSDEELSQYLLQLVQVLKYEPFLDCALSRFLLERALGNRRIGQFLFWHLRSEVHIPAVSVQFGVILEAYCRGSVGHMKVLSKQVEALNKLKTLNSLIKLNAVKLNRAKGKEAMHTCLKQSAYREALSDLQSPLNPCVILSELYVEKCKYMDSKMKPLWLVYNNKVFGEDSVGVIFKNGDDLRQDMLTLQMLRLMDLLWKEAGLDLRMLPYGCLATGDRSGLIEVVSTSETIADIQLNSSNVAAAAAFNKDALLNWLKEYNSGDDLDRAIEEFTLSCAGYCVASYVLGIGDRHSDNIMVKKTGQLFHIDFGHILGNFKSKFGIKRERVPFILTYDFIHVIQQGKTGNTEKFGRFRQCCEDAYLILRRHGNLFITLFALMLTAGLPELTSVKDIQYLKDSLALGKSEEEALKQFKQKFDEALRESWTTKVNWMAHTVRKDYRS

[8] = molecular target: Non-receptor tyrosine-protein kinase TYK2 (Homo sapiens, UniProt P29597); experiment: Inhibition of human TYK2 using KKSRGDYMTMQIG as substrate in presence of [gamma-32P]ATP
Non-receptor tyrosine-protein kinase TYK2, sequence (P29597 whole entry): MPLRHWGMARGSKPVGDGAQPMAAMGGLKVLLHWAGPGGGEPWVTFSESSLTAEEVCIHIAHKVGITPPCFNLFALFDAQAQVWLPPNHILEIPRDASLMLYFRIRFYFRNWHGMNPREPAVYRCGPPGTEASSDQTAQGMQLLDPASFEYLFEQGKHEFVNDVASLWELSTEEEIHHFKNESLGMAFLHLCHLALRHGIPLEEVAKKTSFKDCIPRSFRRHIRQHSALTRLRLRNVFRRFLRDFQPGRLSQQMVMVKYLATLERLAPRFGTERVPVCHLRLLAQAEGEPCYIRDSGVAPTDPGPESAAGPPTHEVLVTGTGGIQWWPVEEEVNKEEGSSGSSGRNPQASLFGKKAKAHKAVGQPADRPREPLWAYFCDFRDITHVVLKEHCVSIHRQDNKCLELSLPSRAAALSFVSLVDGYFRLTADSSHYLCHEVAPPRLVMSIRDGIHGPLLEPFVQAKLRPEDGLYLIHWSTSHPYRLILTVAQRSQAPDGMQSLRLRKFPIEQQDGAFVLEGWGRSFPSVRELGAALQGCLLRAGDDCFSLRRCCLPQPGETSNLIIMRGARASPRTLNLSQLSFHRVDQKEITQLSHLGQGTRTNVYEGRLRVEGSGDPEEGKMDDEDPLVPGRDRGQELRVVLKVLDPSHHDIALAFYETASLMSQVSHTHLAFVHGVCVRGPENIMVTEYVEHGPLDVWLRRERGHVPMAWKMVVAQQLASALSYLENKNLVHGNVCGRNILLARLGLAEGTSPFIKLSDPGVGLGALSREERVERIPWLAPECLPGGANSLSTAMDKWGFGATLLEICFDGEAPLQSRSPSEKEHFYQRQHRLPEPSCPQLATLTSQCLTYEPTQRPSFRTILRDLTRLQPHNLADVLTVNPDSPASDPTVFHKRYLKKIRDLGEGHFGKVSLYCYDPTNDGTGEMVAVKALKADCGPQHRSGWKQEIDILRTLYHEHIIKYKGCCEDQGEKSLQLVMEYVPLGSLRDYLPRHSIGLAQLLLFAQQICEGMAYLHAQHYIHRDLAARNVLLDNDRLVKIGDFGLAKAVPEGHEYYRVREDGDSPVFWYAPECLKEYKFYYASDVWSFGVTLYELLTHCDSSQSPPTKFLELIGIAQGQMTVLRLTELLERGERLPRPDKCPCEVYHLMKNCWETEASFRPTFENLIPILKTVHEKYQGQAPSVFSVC

[9] = Solubility of the compound in 10:5:10:75 DMSO/Tween80/PEG400/saline by absorption spectrometric method; type: physicochemical
[10] = molecular target: Tyrosine-protein kinase SYK (Homo sapiens, UniProt P43405); experiment: Inhibition of human SYK using poly[Glu:Tyr] (4:1) as substrate in presence of [gamma-32P]ATP
CAL-51 [11] = experiment: Antitumor activity against human CAL51 cells xenografted in athymic nude mouse assessed as reduction in tumor weight at 10 mg/kg, ip administered once daily measured after 7 weeks; type: functional, organism-based
[12] = Solubility of the compound in DMSO by absorption spectrometric method; type: physicochemical
[13] = AUC in ICR mouse at 50 mg/kg, ip by LC-MS/MS analysis; type: ADME, organism-based; conditions: in vivo
[14] = molecular target: T1, Dual specificity protein kinase TTK (Homo sapiens); conditions: 1 uM
CAL-51 [15] = experiment: Cytotoxicity against human CAL51 cells assessed as reduction in cell viability at 25 uM after 24 hrs by BrdU incorporation assay relative to control; type: functional
[16] = molecular target: T1, Dual specificity protein kinase TTK (Homo sapiens); conditions: 1 uM; remark: listed apart in the source
CAL-51 [17] = experiment: Antitumor activity against human CAL51 cells xenografted in athymic nude mouse assessed as reduction in tumor growth at 10 mg/kg, ip administered once daily measured after 3 to 7 weeks; type: functional, organism-based
Mus musculus [18] = experiment: Toxicity in athymic nude mouse assessed as body weight at 10 mg/kg, ip administered once daily for 7 weeks measured at post last dose (reference value: 20 to 26 g); type: organism-based; conditions: in vivo, 1176 h
[19] = Elimination half-life in ICR mouse at 20 mg/kg, iv by LC-MS/MS analysis; type: ADME, organism-based; conditions: in vivo, read-out: beta t1/2 (converted)
Mus musculus [20] = experiment: Toxicity in athymic nude mouse assessed as body weight at 10 mg/kg, ip measured immediately (reference value: 20 to 26 g); type: organism-based; conditions: in vivo

| SMILES | IC50 (T47D) [µM] | IC50 (MDA-MB-436) [µM] | IC50 (MCF7) [µM] | IC50 (SK-BR-3) [µM] | IC50 (MDA-MB-231) [µM] | IC50 (MDA-MB-468) [µM] | IC50 (BT-549) [µM] | IC50 (BT-474) [µM] | IC50 (BT-20) [µM] | IC50 (MDA-MB-453) [µM] | IC50 (HCC1937) [µM] | inhibition [3] | inhibition [4] | inhibition [5] | IC50 (Hs-578T) [µM] | IC50 (CAL-51 [1]) [µM] | IC50 (CAMA-1) [µM] | IC50 (AU565) [µM] | further results |
| --- | --- | --- | --- | --- | --- | --- | --- | --- | --- | --- | --- | --- | --- | --- | --- | --- | --- | --- | --- |
| COc1cc(N2CCC(O)CC2)ccc1Nc1cc(Nc2ccccc2S(=O)(=O)C(C)C)c2cc[nH]c2n1 | > 10 | > 10 | > 10 | > 10 | > 10 | 1.85 | 1.73 | > 10 | > 10 | > 10 | > 10 | – | – | – | > 10 | 2.92 | > 10 | > 10 | – |
| COc1ccccc1Nc1nc(Nc2ccccc2S(=O)(=O)C(C)C)c2cc[nH]c2n1 | 0.33 | 5.23 | 0.35 | 0.75 | 0.4 | 1.57 | 2.19 | 0.47 | 0.06 | > 10 | 0.84 | – | – | – | > 10 | 1.26 | 0.84 | > 10 | – |
| COc1cc(N2CCOCC2)ccc1Nc1nc(NC2CCCCC2)c2cc[nH]c2n1 | > 10 | – | > 10 | 0.4 | > 10 | – | – | – | 0.37 | – | 1.02 | Dose-dependent effect | Dose-dependent effect | Active | > 10 | 0.55 | 0.6 | 0.95 | clearance [6]: 292 mL/min/kg; IC50 [7]: 40.6 µM; IC50 [8]: 132 µM; solubility [9]: 5000 µg/mL (≈ 11.8 mM); IC50 [10]: 153 µM; Activity (CAL-51 [11]): Active; solubility [12]: 53400 µg/mL (≈ 126 mM); AUC [13]: 8460 ng·h/mL; inhibition [14]: Active; Activity (CAL-51 [15]): 70%; inhibition [16]: Active; TGI (CAL-51 [17]): Active; Activity (Mus musculus [18]): 26 g; half-life [19]: 2.28 h; Activity (Mus musculus [20]): 24 g |

More lines, main results first:

| IC50 (T47D) [µM] | IC50 (MDA-MB-436) [µM] | IC50 (MCF7) [µM] | IC50 (SK-BR-3) [µM] | IC50 (MDA-MB-231) [µM] | IC50 (MDA-MB-468) [µM] | IC50 (BT-549) [µM] | IC50 (BT-474) [µM] | IC50 (BT-20) [µM] | IC50 (MDA-MB-453) [µM] | IC50 (HCC1937) [µM] | inhibition [3] | inhibition [4] | inhibition [5] | SMILES | IC50 (Hs-578T) [µM] | IC50 (CAL-51 [1]) [µM] | IC50 (CAMA-1) [µM] | IC50 (AU565) [µM] | further results |
| --- | --- | --- | --- | --- | --- | --- | --- | --- | --- | --- | --- | --- | --- | --- | --- | --- | --- | --- | --- |
| > 10 | 0.9 | 0.44 | > 10 | > 10 | 0.19 | 0.81 | > 10 | 0.35 | 0.82 | 0.73 | Dose-dependent effect | Dose-dependent effect | Active | COc1cc(N2CCC(O)CC2)ccc1Nc1nc(Nc2ccccc2S(=O)(=O)C(C)C)c2cc[nH]c2n1 | > 10 | 0.23 | 0.36 | > 10 | inhibition [2]: Dose-dependent effect |
| > 10 | 1.23 | 0.3 | 0.47 | > 10 | 0.32 | 1.3 | 0.29 | 1.71 | > 10 | 1.1 | – | – | – | COc1cc(N2CCOCC2)ccc1Nc1nc(Nc2ccccc2S(=O)(=O)C(C)C)c2cc[nH]c2n1 | > 10 | 0.3 | 0.65 | > 10 | – |
